How the values were obtained:
Capivasertib = compound: C1CN(CCC1(C(=O)N[C@@H](CCO)C2=CC=C(C=C2)Cl)N)C3=NC=NC4=C3C=CN4 [Capivasertib]; conditions: max 10 µM
Summary of the method: (§1)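 Cancer cell lines were plated in 1536-well plates in 7.5 μl of DMEM/F12 or RPMI with 10% FBS and kept 24 hours at 37°C and 5% CO2 before 72 hours of dosing, with final DMSO typically 0.2%. CellTiter-Glo 2.0 luminescence measured viability, scaled between blank-well and DMSO-well means. Dose responses were fitted to a two-parameter logistic curve with a non-linear mixed effects model. This fit gives the single-agent IC50.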

AZD1775 = compound: C=CCn1c(=O)c2cnc(Nc3ccc(N4CCN(C)CC4)cc3)nc2n1-c1cccc(C(C)(C)O)n1 [AZD1775]
Summary of the method: as §1

Trametinib = compound: CC(=O)Nc1cccc(-n2c(=O)n(C3CC3)c(=O)c3c(Nc4ccc(I)cc4F)n(C)c(=O)c(C)c32)c1 [Trametinib]; conditions: max 1 µM
Summary of the method: as §1

Palbociclib = compound: CC(=O)c1c(C)c2cnc(Nc3ccc(N4CCNCC4)cn3)nc2n(C2CCCC2)c1=O [Palbociclib]; conditions: max 10 µM
Summary of the method: as §1

AZD1390 = compound: CC(C)n1c(=O)n(C)c2cnc3cc(F)c(-c4ccc(OCCCN5CCCCC5)nc4)cc3c21 [AZD1390]; conditions: max 0.3 µM
Summary of the method: as §1

Venetoclax = compound: CC1(C)CCC(CN2CCN(c3ccc(C(=O)NS(=O)(=O)c4ccc(NCC5CCOCC5)c([N+](=O)[O-])c4)c(Oc4cnc5[nH]ccc5c4)c3)CC2)=C(c2ccc(Cl)cc2)C1 [Venetoclax]; conditions: max 1 µM
Summary of the method: as §1

Dasatinib = compound: CC1=C(C(=CC=C1)Cl)NC(=O)C2=CN=C(S2)NC3=CC(=NC(=N3)C)N4CCN(CC4)CCO [Dasatinib]; conditions: max 2 µM
Summary of the method: as §1

SG3199 = compound: CC1=CN2[C@@H](C1)C=NC3=CC(=C(C=C3C2=O)OC)OCCCCCOC4=C(C=C5C(=C4)N=C[C@@H]6CC(=CN6C5=O)C)OC [SG3199]; conditions: max 0.001 µM
Summary of the method: as §1

AZD2811 = compound: CCN(CCO)CCCOc1ccc2c(Nc3cc(CC(=O)Nc4cccc(F)c4)[nH]n3)ncnc2c1 [AZD2811]; conditions: max 1 µM
Summary of the method: as §1

SN-38 = compound: CCc1c2c(nc3ccc(O)cc13)-c1cc3c(c(=O)n1C2)COC(=O)[C@]3(O)CC [SN-38]; conditions: max 0.3 µM
Summary of the method: as §1

AZD0156 = compound: CN(C)CCCOc1ccc(-c2ccc3ncc4c(c3c2)n(C2CCOCC2)c(=O)n4C)cn1 [AZD0156]
Summary of the method: as §1

AZD4320 = compound: CN(CC[C@H](CSC1=CC=CC=C1)NC2=C(C=C(C=C2)S(=O)(=O)NC(=O)C3=CC=C(C=C3)N4CCC(CC4)[C@H](C5=CC=CC=C5C6=CC=C(C=C6)Cl)O)S(=O)(=O)C(F)(F)F)CCO [AZD4320]; conditions: max 1 µM
Summary of the method: as §1

Alisertib = compound: COc1cc(Nc2ncc3c(n2)-c2ccc(Cl)cc2C(c2c(F)cccc2OC)=NC3)ccc1C(=O)O [Alisertib]; conditions: max 10 µM
Summary of the method: as §1

Gefitinib = compound: COc1cc2ncnc(Nc3ccc(F)c(Cl)c3)c2cc1OCCCN1CCOCC1 [Gefitinib]; conditions: max 10 µM
Summary of the method: as §1

Prexasertib = compound: COc1cccc(OCCCN)c1-c1cc(Nc2cnc(C#N)cn2)n[nH]1 [Prexasertib]; conditions: max 1 µM
Summary of the method: as §1

Doxorubicin = compound: COc1cccc2c1C(=O)c1c(O)c3c(c(O)c1C2=O)C[C@@](O)(C(=O)CO)C[C@@H]3O[C@H]1C[C@H](N)[C@H](O)[C@H](C)O1 [Doxorubicin]; conditions: max 1 µM
Summary of the method: as §1

AZD5153 = compound: COc1nnc2ccc(N3CCC(c4ccc(OCCN5CCN(C)C(=O)[C@H]5C)cc4)CC3)nn12 [AZD5153]; conditions: max 1 µM
Summary of the method: as §1

Lapatinib = compound: CS(=O)(=O)CCNCc1ccc(-c2ccc3ncnc(Nc4ccc(OCc5cccc(F)c5)c(Cl)c4)c3c2)o1 [Lapatinib]; conditions: max 10 µM
Summary of the method: as §1

AZD8186 = compound: C[C@@H](Nc1cc(F)cc(F)c1)c1cc(C(=O)N(C)C)cc2c(=O)cc(N3CCOCC3)oc12 [AZD8186]; conditions: max 3 µM
Summary of the method: as §1

Crizotinib = compound: C[C@@H](Oc1cc(-c2cnn(C3CCNCC3)c2)cnc1N)c1c(Cl)ccc(F)c1Cl [Crizotinib]; conditions: max 10 µM
Summary of the method: as §1

Savolitinib = compound: C[C@@H](c1ccc2nccn2c1)n1nnc2ncc(-c3cnn(C)c3)nc21 [Savolitinib]; conditions: max 1 µM
Summary of the method: as §1

AZD6738 = compound: C[C@@H]1COCCN1C2=NC(=NC(=C2)C3(CC3)[S@](=N)(=O)C)C4=C5C=CNC5=NC=C4 [AZD6738]; conditions: max 10 µM
Summary of the method: as §1

AZD5991 = compound: Cc1c2c(nn1C)CSCc1cc(n(C)n1)CSc1cc(c3ccccc3c1)OCCCc1c(C(=O)O)n(C)c3c-2c(Cl)ccc13 [AZD5991]; conditions: max 1 µM
Summary of the method: as §1

AZD7648 = compound: Cc1cc2ncnn2cc1Nc1ncc2c(n1)n(C1CCOCC1)c(=O)n2C [AZD7648]; conditions: max 10 µM
Summary of the method: as §1

Taselisib = compound: Cc1nc(-c2cn3c(n2)-c2ccc(-c4cnn(C(C)(C)C(N)=O)c4)cc2OCC3)n(C(C)C)n1 [Taselisib]; conditions: max 10 µM
Summary of the method: as §1

Selumetinib = compound: Cn1cnc2c(F)c(Nc3ccc(Br)cc3Cl)c(C(=O)NOCCO)cc21 [Selumetinib]; conditions: max 10 µM
Summary of the method: as §1

Olaparib = compound: O=C(c1cc(Cc2n[nH]c(=O)c3ccccc23)ccc1F)N1CCN(C(=O)C2CC2)CC1 [Olaparib]
Summary of the method: as §1

Cell Line | IC50, cell viability 72 h (Capivasertib) | IC50, cell viability 72 h (AZD1775; max 3 µM) | IC50, cell viability 72 h (Trametinib) | IC50, cell viability 72 h (Palbociclib) | IC50, cell viability 72 h (AZD1390) | IC50, cell viability 72 h (Venetoclax) | IC50, cell viability 72 h (Dasatinib) | IC50, cell viability 72 h (SG3199) | IC50, cell viability 72 h (AZD2811) | IC50, cell viability 72 h (SN-38) | IC50, cell viability 72 h (AZD0156; max 3 µM) | IC50, cell viability 72 h (AZD4320) | IC50, cell viability 72 h (Alisertib) | IC50, cell viability 72 h (Gefitinib) | IC50, cell viability 72 h (Prexasertib) | IC50, cell viability 72 h (Doxorubicin) | IC50, cell viability 72 h (AZD5153) | IC50, cell viability 72 h (Lapatinib) | IC50, cell viability 72 h (AZD8186) | IC50, cell viability 72 h (Crizotinib) | IC50, cell viability 72 h (Savolitinib) | IC50, cell viability 72 h (AZD6738) | IC50, cell viability 72 h (AZD5991) | IC50, cell viability 72 h (AZD7648) | IC50, cell viability 72 h (Taselisib) | IC50, cell viability 72 h (Selumetinib) | IC50, cell viability 72 h (Olaparib; max 10 µM) | IC50, cell viability 72 h (AZD1775; max 1 µM) | IC50, cell viability 72 h (AZD0156; max 1 µM) | IC50, cell viability 72 h (Olaparib; max 3 µM)
EMC-BAC-2 (Non-Small Cell Lung Carcinoma) | > 10 µM | > 3 µM | 0.198 µM | > 10 µM | > 0.3 µM | > 1 µM | 0.995 µM | > 0.001 µM | > 1 µM | 0.169 µM | > 3 µM | > 1 µM | 5.48 µM | > 10 µM | > 1 µM | 0.959 µM | 0.22 µM | > 10 µM | > 3 µM | > 10 µM | > 1 µM | > 10 µM | 0.873 µM | > 10 µM | 2.32 µM | > 10 µM | > 10 µM | – | – | –
EW-13 (Ewing's Sarcoma) | > 10 µM | – | > 1 µM | > 10 µM | > 0.3 µM | > 1 µM | > 2 µM | > 0.001 µM | > 1 µM | 0.00864 µM | – | 0.27 µM | > 10 µM | > 10 µM | 0.829 µM | 0.467 µM | > 1 µM | > 10 µM | > 3 µM | > 10 µM | > 1 µM | > 10 µM | > 1 µM | > 10 µM | > 10 µM | > 10 µM | > 10 µM | > 1 µM | > 1 µM | –
EW-18 (Ewing's Sarcoma) | 2.44 µM | 0.359 µM | > 1 µM | > 10 µM | > 0.3 µM | > 1 µM | > 2 µM | > 0.001 µM | 0.131 µM | 0.106 µM | > 3 µM | 0.0454 µM | 0.853 µM | > 10 µM | 0.0432 µM | > 1 µM | 0.376 µM | > 10 µM | > 3 µM | 1.85 µM | > 1 µM | 3.99 µM | 0.06 µM | > 10 µM | 1.24 µM | > 10 µM | > 10 µM | – | – | –
NH-12 (Neuroblastoma) | > 10 µM | – | 0.105 µM | > 10 µM | > 0.3 µM | 0.576 µM | > 2 µM | > 0.001 µM | 0.509 µM | 0.00409 µM | > 3 µM | 0.0793 µM | 0.0688 µM | > 10 µM | 0.0173 µM | 0.157 µM | 0.625 µM | > 10 µM | > 3 µM | 3.02 µM | > 1 µM | 2.37 µM | > 1 µM | > 10 µM | 1.25 µM | > 10 µM | > 10 µM | – | – | –
U-87-MG (Glioblastoma) | > 10 µM | > 3 µM | > 1 µM | > 10 µM | > 0.3 µM | > 1 µM | > 2 µM | – | > 1 µM | 0.0405 µM | > 3 µM | > 1 µM | > 10 µM | > 10 µM | > 1 µM | – | > 1 µM | > 10 µM | 2.45 µM | > 10 µM | > 1 µM | > 10 µM | > 1 µM | > 10 µM | 2.45 µM | > 10 µM | – | – | – | > 3 µM
